Read-outs that look alike come from different tables or passages of the source.
Assays:
[1] = biological target: imidazoline-2 binding sites (I2BS); assay: ^3H-BU99008 competition binding assay with unlabelled ligands in temporal cortex brain homogenate; design: species or system human
Procedure: (§1) After 1 h incubation a similar protocol as saturation binding assay was done and the binding was quantified using the scintillation counter.
(§2) The competition binding data was fitted and analysed using non-linear regression competitive-binding function of GraphPad Prism 8.3 software to determine IC50 (half-maximal inhibitory concentration) values.

[2] = tested on: imidazoline-2 binding sites (I2BS); design: method as in PMID 29523627, PMID 24711648; conditions: rhesus brain, dose-dependent; ref [43], [51]; cited from earlier work
[3] = biological target: T1, monoamine oxidase B (MAO B) (Homo sapiens, UniProt P27338); assay: ^3H-Deprenyl competition binding assay in temporal cortex brain homogenate; conditions: for IC50: vs 10 nM ^3H-Deprenyl, two-site fit
T1 construct: from tissue; host or cells: large frozen postmortem human brain sections (control, sporadic AD, AβPParc carrier)
T1 sequence (P27338 1-520): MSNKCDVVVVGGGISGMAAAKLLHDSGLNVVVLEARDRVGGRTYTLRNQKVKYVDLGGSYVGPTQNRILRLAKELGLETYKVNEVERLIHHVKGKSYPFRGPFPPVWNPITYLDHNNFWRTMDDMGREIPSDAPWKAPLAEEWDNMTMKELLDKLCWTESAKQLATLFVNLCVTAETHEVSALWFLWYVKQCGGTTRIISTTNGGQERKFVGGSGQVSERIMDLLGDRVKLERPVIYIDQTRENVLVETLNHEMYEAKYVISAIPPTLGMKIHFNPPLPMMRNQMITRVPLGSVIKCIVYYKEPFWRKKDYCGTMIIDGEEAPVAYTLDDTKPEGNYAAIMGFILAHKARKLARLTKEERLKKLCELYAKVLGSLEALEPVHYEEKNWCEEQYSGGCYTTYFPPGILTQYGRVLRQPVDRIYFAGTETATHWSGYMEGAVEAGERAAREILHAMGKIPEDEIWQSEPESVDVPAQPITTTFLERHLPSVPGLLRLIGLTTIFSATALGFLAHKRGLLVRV
Procedure: as §1, §2

[4] = biological target: imidazoline-2 binding sites (I2BS); assay: ^3H-BU99008 competition binding with unlabelled BU99008 in the presence of MAO B inhibitors; design: species or system human; conditions: for IC50: unlabelled BU99008 alone
Procedure: A similar protocol as saturation binding assay was performed after 1 h incubation and the binding was quantified using the scintillation counter.
as §2

[5] = tested on: imidazoline-2 binding sites (I2BS); design: method as in PMID 29523627; conditions: human brain, pretreatment, highest dose of 80 mg; ref [43]; cited from earlier work
[6] = AD temporal cortex, vs 1 nM ^3H-BU99008, two-site fit, read-out: IC50_1
[7] = AD temporal cortex, vs 1 nM ^3H-BU99008, two-site fit, read-out: IC50_2
[8] = CN temporal cortex, vs 1 nM ^3H-BU99008, two-site fit, read-out: IC50_1
[9] = CN temporal cortex, vs 1 nM ^3H-BU99008, two-site fit, read-out: IC50_2

Compound	IC50 [1, 8] [nM]	IC50 [1, 9] [nM]	proportion of Low-affinity (LA; 10^-7 to -6 M) binding sites ([1]; CN, ^3H-BU99008 competition) [%]	IC50 [1, 6] [nM]	IC50 [1, 7] [nM]	proportion of High-affinity (HA; 10^-10 to -9 M) binding sites ([1]; CN, ^3H-BU99008 competition) [%]	proportion of Low-affinity (LA; 10^-7 to -6 M) binding sites ([1]; AD, ^3H-BU99008 competition) [%]	proportion of Super high-affinity (SH; 10^-13 to -11 M) binding sites ([1]; CN, ^3H-BU99008 competition) [%]	further results
Cn1c(C2=NCCN2)cc2ccccc21 [BU99008, 2-(4,5-dihydro-1H-imidazol-2-yl)-1-methyl-1H-indole]	–	2.45	–	1.43	342	75	22	25	proportion of High-affinity (HA; 10^-10 to -9 M) binding sites ([1]; AD, ^3H-BU99008 competition): 78%; majority of binding to HA binding sites ([1]; both CN and AD cases, ^3H-BU99008 competition): 75–78%; majority of binding to LA sites [3]: 70–78%; IC50 ([3]; AD temporal cortex, read-out: IC50_1): 0.002 nM; IC50 ([3]; AD temporal cortex, read-out: IC50_2): 254 nM; IC50 ([3]; CN temporal cortex, read-out: IC50_1): 0.72 nM; IC50 ([3]; CN temporal cortex, read-out: IC50_2): 3110 nM; IC50 ([4]; AD (85 years), one-site, read-out: IC50): 1.73 nM; IC50 ([4]; CN (71 years), vs 1 nM ^3H-BU99008, read-out: IC50_2 (HA)): 2.81 nM
c1ccc2c(c1)OCC(C1=NCCN1)O2 (stereo not drawn) [idazoxan]	–	–	–	–	–	–	–	–	average block of ^11C-BU99008 uptake across all regions [5]: 60%
C[C@H](NCc1ccc(OCc2cccc(F)c2)cc1)C(N)=O [safinamide]	–	–	–	–	–	–	–	–	effect on binding of BU99008 to the SH binding sites ([4]; CN, ^3H-BU99008 competition): completely blocked; decrease in ^3H-BU99008 total binding ([4]; CN, lower concentration ranges [10^-14-10^-9]): 15–30%; effect on binding of BU99008 to HA binding sites ([4]; both CN and AD cases, increasing concentrations of inhibitor): not affected

More lines, main results first:

IC50 [1, 8] [nM]	IC50 [1, 9] [nM]	proportion of Low-affinity (LA; 10^-7 to -6 M) binding sites ([1]; CN, ^3H-BU99008 competition) [%]	Compound	IC50 [1, 6] [nM]	IC50 [1, 7] [nM]	proportion of High-affinity (HA; 10^-10 to -9 M) binding sites ([1]; CN, ^3H-BU99008 competition) [%]	proportion of Low-affinity (LA; 10^-7 to -6 M) binding sites ([1]; AD, ^3H-BU99008 competition) [%]	proportion of Super high-affinity (SH; 10^-13 to -11 M) binding sites ([1]; CN, ^3H-BU99008 competition) [%]	further results
0.34	150	82	Cl.c1ccc2oc(C3=NCCN3)cc2c1 [2-BFI, 2-(Benzofuran-2-yl)-2-imidazoline hydrochloride]	0.041	165	18	–	–	proportion of Super high-affinity (SH; 10^-13 to -11 M) binding sites ([1]; AD, ^3H-BU99008 competition): 19%
0.026	186	56	Cl.c1ccc2nc(C3=NCCN3)ccc2c1 [BU224, 2-(4,5-Dihydroimidazol-2-yl)quinoline hydrochloride]	–	–	–	100	44	IC50 ([1]; AD temporal cortex, vs 1 nM ^3H-BU99008, single binding site, read-out: IC50): 416 nM; ^11C-BU99008 signal throughout the brain after pretreatment [2]: significantly reduced
